Laboratory results published in publication PMC4104761, “Identification of a novel lytic peptide for the treatment of solid tumours” (Genes & Cancer, 2014).

Key:
[1] = tested on: osteosarcoma cell lines (U2OS, SaOs2); assay: LIVE/DEAD Viability/Cytotoxicity assay; format: cell-based, human; settings: morphometric evaluation (Calcein), 35 µg Cypep-1/ml, 3 hours
Description: (§1) In order to visualise and quantify the cytotoxic action of Cypep-1 simultaneously, the LIVE/DEAD® Viability/Cytotoxicity Kit was employed according to the manufacturers instructions on monolayers of 30 000 cells in sterile 24 multi well dishes (Nunc™, Roskilde, Denmark), using the selected human osteosarcoma cell lines U2OS and SaOs2 as well as the two human fibroblast cell lines HFF1 (foreskin) and 142Br (skin).
(§2) The monolayer cultures were incubated with Cypep-1 for a period of 3 hours in concentrations ranging from 2.5 µg to 35 µg/ml. The cells were observed using an inverted fluorescence microscope (Nikon Eclipse 2000E, Tokyo, Japan) equipped with FITC (green fluorescence) and TRITC (red fluorescence) filter optics. The fluorescent cells were then photographed at a 10x magnification. The proportions of viable cells (live cells showing green fluorescence due to the presence of Calcein) and dead cells (red fluorescent due to the membrane penetration of Ethidium-Homodimer-1) were quantified using a Lucia G Morphometry System, Version 4.71 (Laboratory Imaging, Prague, Czech Republic).

all cancer cell lines = assay: MTT viability assay, average of all cancer cell lines; format: cell-based; settings: 20 µg Cypep-1/ml, 60 min exposure
Description: (§3) Cypep-1 was tested in various concentrations on a total of 17 cell lines, which included 13 human and 1 murine tumour cell line(s), as well as 3 normal human cell lines. Listed in detail: 4 human osteosarcoma (U2OS, SaOS2, HOS and MNNG-HOS), 6 human glioblastoma (A172, GaMg, LN18, U87, U373 and T98G) and 3 human mammary carcinoma cell lines (MCF7, AU565 and MDA-MB-468) as well as an additional murine mammary carcinoma cell line (4T1). Furthermore, 3 normal human cell lines were included: 2 normal human fibroblast cell lines (HFF1 and 142Br) as well as normal human osteoblasts (HOB).
(§4) MTT proliferation assays were performed on all cell lines (with the exception of 142Br (human skin fibroblasts)), using monolayers of 15 000 cells in sterile 96 well tissue culture plates (Nunc™, Roskilde, Denmark), respectively. All cells were incubated with Cypep-1 dissolved in 0.9% NaCl, at the following concentrations: 0.1, 0.5, 1.0, 5, 10, 15, 20, 25, 30 and 35µg of Cypep-1 per ml and assayed after 15, 30, 45, 60, 75, 90, 180, 270 and 360 min.

normal human cell lines = assay: MTT viability assay, average of normal human cell lines; format: cell-based; settings: 20 µg Cypep-1/ml, 60 min exposure
Description: as §3, §4

[2] = Biodistribution of 125I-Cypep-1 after i.v. injection; format: in vivo, Wistar rat; settings: rat
Description: The radio labelling of Cypep-1 was performed with ^125I, according to the Iodo-Gen method as described by Fraker et al.. The obtained ^125I-Cypep-1 stock solution was stored in the dark at 4°C for 48 hours prior to validation by reversed phase chromatography, using a 4.6 × 50 mm Dionex Proswift RP-2H column on an Ettan LC System (GE Healthcare, Oslo, Norway) in line with a Radiomatic 610TR Flow System Analyzer by Perkin Elmer (PerkinElmer, Waltham, MA) for gamma detection.
The plasma activity and biodistribution of ^125I-Cypep-1 was evaluated in a single experiment. An adult female Wistar rat of 260 g body weight was anaesthetized using 15 mg of Pentobarbital i.p.. Its body temperature was maintained at 37°C, using both a heating pad and an infrared lamp. Two PE-50 polyethylene catheters were placed into the femoral vein for the bolus injection of Cypep-1 and one into the femoral artery for blood sampling. 50 µl of the ^125I-Cypep-1 stock solution dissolved in 500 µl 0.9% NaCl were injected i.v., and a total of six arterial blood samples (100 µl per sample) were collected at 0.25, 1, 5, 10, 15 and 20 min following the ^125I-Cypep-1 administration. The animal was sacrificed under deep anaesthesia with an i.v. bolus injection of 0.5 ml saturated KCl. The tissue and plasma samples were harvested immediately and counted for ^125I-activity in a gamma-counter (LKB Wallac 1285, Turku, Finland). The peptide distribution volumes in the various body tissues were calculated as the ^125I-activity per gram tissue sample divided by the time-averaged plasma ^125I-activity during the 20 minutes clearance period (*= plasma equivalent space in ml/g tissue wet weight).

[3] = tested on: 142Br normal human skin fibroblasts; assay: LIVE/DEAD Viability/Cytotoxicity assay; format: cell-based; settings: morphometric evaluation (Calcein), 35 µg Cypep-1/ml, 3 hours
Description: as §1, §2

[4] = tested on: HFF1 normal human foreskin fibroblasts; assay: LIVE/DEAD Viability/Cytotoxicity assay; format: cell-based; settings: morphometric evaluation (Calcein), 35 µg Cypep-1/ml, 3 hours
Description: as §1, §2

[5] = Surface plasmon resonance (SPR) binding to liposomes; settings: BIAcore 3000, L1 chip, curve fitting
Description: SPR was used to quantify the binding of Cypep-1 to phospholipid model membranes of different compositions at neutral pH (pH 7.4) and a temperature of 25 °C. 100 nm liposomes made of egg yolk […] (EYL; L-α-phosphatidylcholine; 95% purity) were employed to represent amphitropic, neutral membranes, while liposomes composed of both pig brain L-α-phosphatidylserine (PBPS) and EYL (from Avanti Polar Lipids Inc., Alabaster, Alabama, USA), with PBPS:EYL in a 1:1 M: M mixture, represented acidic, negatively charged membranes. […] [79]. The SPR analyses were carried out on a BIAcore 3000 instrument (BIAcore AB, Uppsala, Sweden) as described in Halskau et al., using a L1 sensor chip from BIAcore (BIAcore AB, Uppsala, Sweden).

mammary carcinoma AU 565 = assay: MTT viability assay; format: cell-based, human; settings: 20 µg Cypep-1/ml, 60 min incubation, most sensitive cell line
Description: as §3, §4

glioblastoma GaMg = assay: MTT viability assay; format: cell-based, human; settings: 20 µg Cypep-1/ml, 60 min incubation, least sensitive cell line
Description: as §3, §4

[6] = 125I-Cypep-1, i.v., 20 min after administration, gamma counting, single animal

In the case of YGRKKRRQRRRGKTLRVAKAIYKRYIE [Cypep-1], the average surviving fraction [1] is reported as “lower than 5%”, the “surviving fraction, average of all cancer cell lines” value (all cancer cell lines) is reported as 18.6% and the “surviving fraction, average of normal human cell lines” value (normal human cell lines) is reported as 56%. For the same sequence, the “tissue distribution, cerebellum” value [2, 6] was 0.00 ml/g tissue wet weight, the “tissue distribution, cerebrum” value [2, 6] was 0.01 ml/g tissue wet weight and the “tissue distribution, colon” value [2, 6] was 0.14 ml/g tissue wet weight. The “tissue distribution, eye” value [2, 6] was 0.02 ml/g tissue wet weight, the “tissue distribution, jejunum” value [2, 6] was 0.17 ml/g tissue wet weight and the “tissue distribution, kidneys (per kidney)” value [2, 6] was 1.685 ml/g tissue wet weight. The “tissue distribution, liver” value [2, 6] was 11.74 ml/g tissue wet weight, the “tissue distribution, lungs” value [2, 6] was 0.38 ml/g tissue wet weight and the “tissue distribution, muscle tissue” value [2, 6] was 0.02 ml/g tissue wet weight. The “tissue distribution, spleen” value [2, 6] was 4.89 ml/g tissue wet weight, the “tissue distribution, stomach” value [2, 6] was 0.04 ml/g tissue wet weight and the “tissue distribution, thyroid gland” value [2, 6] was 0.13 ml/g tissue wet weight. The “passage of the blood-brain-barrier” value ([2]; concluded from very low concentrations in organs of the central nervous system, i.v.) was “did not pass the blood-brain-barrier”, the viability [3] was 81% and the viability [4] was 64%. The “peptide concentration of half-maximal binding (S0.5)” value ([5]; 100 nm EYL liposomes, pH 7.4, 25 °C) was 39.1 ± 5.3 µg/mL, the “peptide concentration of half-maximal binding (S0.5)” value ([5]; 100 nm liposomes PBPS:EYL 1:1, pH 7.4, 25 °C) was 16.2 ± 4.4 µg/mL and the average surviving fraction (mammary carcinoma AU 565) was 7%. It also gave an average surviving fraction (glioblastoma GaMg) of 33%.
